Source: patent EP2905024A1 (Institut Quimic De Sarriá Cets, Fundació Privada, priority 2014, dated 2015)

Key:
[1] = test system: subgenomic HCV genotype 1b replicon, I389/NS3-3'/ LucUbiNeo-ET; test: in vitro antiviral activity: luciferase assay in LucUbiNeo-ET HCV replicon cells; format: cell-based; settings: Hepatitis C virus, 48 h, 2 days of incubation, luciferase readout, mean of duplicates
From the text: (§1) To analyze the antiviral activity of the compounds, we used a stable cell line, LucUbiNeo-ET, that contains a subgenomic HCV genotype 1b replicon, I389/NS3-3'/ LucUbiNeo-ET, that express luciferase constitutively (Krieger et al, JVI 2001; 75:4614; Frese et al., JGV 2003; 84: 1253-1259). To evaluate the cellular toxicity, we use other cell line, Huh-7/Lunet (Friebe et al., JVI 2005; 79: 380-392), that originally carried a selectable luciferase HCV 1b replicon and was cured by treatment with an HCV-specific inhibitor. These cells are characterized by high permissiveness for HCV RNA replication. LucUbiNeo-ET cell line was cultured at 37°C in a humidified atmosphere with 5% CO2 in Dulbecco's modified Eagle medium (D-MEM) supplemented with high glucose concentration (4.5g/l) (Invitrogen), 10% (vol/vol) heat-inactivated fetal bovine serum (Hyclone, Cultek), 2mM L-Glutamine (Sigma-aldrich), 1mM sodium pyruvate (Sigma-aldrich), 1% MEM NEEA (Sigma-aldrich), and 0.5 mg/ml of Geneticin (G418) (Gibco, Invitrogen). Cured or Huh-7/Lunet cell line was maintained at the same conditions as described above without the addition of Geneticin.
(§2) Antiviral activity was carried out in white-clear bottom 96-well plates, and cytotoxicity assays were performed in clear 96-well plates. Cells were seeded at a density of 10^4/well in 100ul D-MEM without selection of antibiotics. After 24h, nine fivefold serial dilution of compounds, with 3 replicates at each dilution, were prepared in D-MEM and added to the appropriate wells, yielding concentrations of 125 to 0,00032 ug/ml in a final volume of 100 ul of D-MEM. Following 2 days of incubation, we determined the antiviral activity (EC50) by quantifying the luciferase with the Luciferase Bright Glo assay (Promega). Briefly, LucUbiNeo-ET cells were harvested with the addition of 100 ul of luciferase per well, and after 2 minutes of shaking, the light was read in a Luminometer Fluoroskan Ascent FL. Toxicity (CC50) was analysed in the Lunet/HuH7 cells by the addition of 10 ul of MTT (3-(4,5-dimethylthiazol-2-yl)-2,5-diphenyltetrazolium bromide) per well. After 4h of incubation at 37°C in a humidified atmosphere with 5% CO2, the amount of formazan produced was quantified spectrophotometrically at 550/620 nm [C. Pannecouque et al, Nature protocol 2008; 3 (3): 427-434]. The EC50 and CC50 values were calculated for each compound. These assays were done in duplicate and the results shown in Table 1 represent the mean value of these duplicates.

cytotoxicity assay (MTT) = format: cell-based; settings: human, Lunet/HuH7 cells, 2 days of incubation, mean of duplicates; for CC50 at 2 days: Huh-7/Lunet cells (cured HCV replicon cells); for CC50 at 48 h: huh-7/lunet cells
From the text: as §1, §2

Cn1c(=O)c(-c2c(F)cccc2F)cc2c(N)nc(Nc3ccccc3)nc21 [Example 47, 4-amino-6-(2,6-difluorophenyl)-8-methyl-2-(phenylamino)pyrido[2,3-d]pyrimidine-7(8H)-one]
EC50 [1]: < 1 µM | CC50 at 2 days (cytotoxicity assay (MTT)): 10 to 25 µM

O=C1Nc2nc(Oc3ccccc3)nc(On3nnc4ccccc43)c2CC1c1ccc(F)cc1 (stereo not shown) [Example 3, 4-((1H-benzo[d][1,2,3]triazol-1-yl)oxy)-6-(4-fluorophenyl)-2-phenoxy-3,4,5,6-tetrahydropyrido[2,3-d]pyrimidine-7(8H)-one]
EC50 [1]: 5 to 22 µM | CC50 at 48 h (cytotoxicity assay (MTT)): ≥ 25 µM

O=c1[nH]c2nc(Nc3ccccc3)[nH]c(=O)c2cc1-c1ccc(F)cc1 [Example 29, 6-(4-fluorophenyl)-2-(phenylamino)pyrido[2,3-d]pyrimidine-4,7(3H,8H)-dione]
EC50 [1]: < 1 µM | CC50 at 2 days (cytotoxicity assay (MTT)): 10 to 25 µM

O=C1Nc2nc(Nc3ccccc3)nc(On3nnc4ccccc43)c2CC1c1ccc(F)cc1 (stereo not shown) [Example 4]
EC50 [1]: 1 to 5 µM | CC50 at 48 h (cytotoxicity assay (MTT)): 10 to 25 µM

CCn1c(=O)c(-c2c(Cl)cccc2Cl)cc2c(N)nc(Nc3ccccc3)nc21 [Example 54, 4-amino-6-(2,6-dichlorophenyl)-8-ethyl-2-(phenylamino)pyrido[2,3-d] pyrimidine-7(8H)-one]
EC50 [1]: 1 to 5 µM | CC50 at 2 days (cytotoxicity assay (MTT)): ≥ 25 µM

CCCCn1c(=O)c(-c2c(Cl)cccc2Cl)cc2c(N)nc(Nc3ccccc3)nc21 [Example 56, 4-amino-8-butyl-6-(2,6-dichlorophenyl)-2-(phenylamino)pyrido[2,3-d] pyrimidine-7(8H)-one]
EC50 [1]: 5 to 22 µM | CC50 at 2 days (cytotoxicity assay (MTT)): ≥ 25 µM

CCCCCNc1nc(N)nc2[nH]c(=O)c(-c3c(Cl)cccc3Cl)cc12 [Example 28, 2-amino-6-(2,6-dichlorophenyl)-4-(pentylamino)pyrido[2,3-d]pyrimidine-7(8H)-one]
EC50 [1]: 1 to 5 µM | CC50 at 2 days (cytotoxicity assay (MTT)): 10 to 25 µM

O=C1Nc2nc(Nc3ccccc3)[nH]c(=O)c2CC1c1ccccc1 (stereo not shown) [Example 18, 6-phenyl-2-(phenylamino)-5,6-dihydropyrido[2,3-d]pyrimidine-4,7(3H,8H)-dione]
EC50 [1]: 1 to 5 µM | CC50 at 2 days (cytotoxicity assay (MTT)): ≥ 25 µM

CC(C)Cn1c(=O)c(-c2c(Cl)cccc2Cl)cc2c(N)nc(Nc3ccccc3)nc21 [Example 57, 4-amino-6-(2,6-dichlorophenyl)-8-isobutyl-2-(phenylamino)pyrido[2,3-d] pyrimidine-7(8H)-one]
EC50 [1]: < 1 µM | CC50 at 2 days (cytotoxicity assay (MTT)): ≥ 25 µM

O=C1Nc2nc(NCc3ccccc3)[nH]c(=O)c2CC1c1c(Cl)cccc1Cl (stereo not shown) [Example 22, 2-(benzylamino)-6-(2,6-dichlorophenyl)-5,6-dihydropyrido [2,3-d]pyrimidine-4,7(3H,8H)-dione]
EC50 [1]: 5 to 22 µM | CC50 at 2 days (cytotoxicity assay (MTT)): ≥ 25 µM

Cn1c(=O)c(-c2c(Cl)cccc2Cl)cc2c(N)nc(Nc3ccccc3)nc21 [Example 48, 4-amino-6-(2,6-dichlorophenyl)-8-methyl-2-(phenylamino)pyrido[2,3-d]pyrimidine-7(8H)-one]
EC50 [1]: < 1 µM | CC50 at 2 days (cytotoxicity assay (MTT)): < 10 µM

Nc1nc(Nc2ccccc2)nc2[nH]c(=O)c(-c3c(F)cccc3F)cc12 [Example 34, 4-amino-6-(2,6-difluorophenyl)-2-(phenylamino)pyrido[2,3-d]pyrimidine-7(8H)-one]
EC50 [1]: 5 to 22 µM | CC50 at 2 days (cytotoxicity assay (MTT)): < 10 µM

CCCOCCNc1nc(N)nc2[nH]c(=O)c(-c3ccc(F)cc3)cc12 [Example 24, 2-amino-6-(4-fluorophenyl)-4-((2-propoxyethyl)amino) pyrido[2,3-d]pyrimidine-7(8H)-one]
EC50 [1]: 1 to 5 µM | CC50 at 2 days (cytotoxicity assay (MTT)): ≥ 25 µM

Nc1nc(Nc2ccccc2)nc2[nH]c(=O)c(-c3ccccc3)cc12 [Example 37, 4-amino-6-phenyl-2-(phenylamino)pyrido[2,3-d]pyrimidine-7(8H)-one]
EC50 [1]: < 1 µM | CC50 at 2 days (cytotoxicity assay (MTT)): 10 to 25 µM

Nc1nc(Nc2ccccc2)nc2[nH]c(=O)c(-c3c(Br)cccc3Br)cc12 [Example 36, 4-amino-6-(2,6-dibromophenyl)-2-(phenylamino)pyrido[2,3-d]pyrimidine-7(8H)-one]
EC50 [1]: 5 to 22 µM | CC50 at 2 days (cytotoxicity assay (MTT)): ≥ 25 µM

Cn1c(=O)c(-c2c(Br)cccc2Br)cc2c(N)nc(Nc3ccccc3)nc21 [Example 49, 4-amino-6-(2,6-bromophenyl)-8-methyl-2-(phenylamino)pyrido[2,3-d]pyrimidine-7(8H)-one]
EC50 [1]: < 1 µM | CC50 at 2 days (cytotoxicity assay (MTT)): < 10 µM

CCCn1c(=O)c(-c2c(Cl)cccc2Cl)cc2c(N)nc(Nc3ccccc3)nc21 [Example 55, 4-amino-6-(2,6-dichlorophenyl)-2-(phenylamino)-8-propylpyrido[2,3-d] pyrimidine-7(8H)-one]
EC50 [1]: 1 to 5 µM | CC50 at 2 days (cytotoxicity assay (MTT)): ≥ 25 µM

COc1nc(N)nc2c1CC(c1c(Cl)cccc1Cl)C(=O)N2C (stereo not shown) [Example 45, 2-amino-6-(2,6-dichlorophenyl)-4-methoxy-8-methyl-5,6-dihydropyrido[2,3-d]pyrimidine-7(8H)-one]
EC50 [1]: 5 to 22 µM | CC50 at 2 days (cytotoxicity assay (MTT)): ≥ 25 µM

O=C1Nc2nc(Nc3ccccc3)nc(On3nnc4ccccc43)c2CC1c1ccc(Cl)cc1Cl (stereo not shown) [Example 6, 4-((1H-benzo[d][1,2,3]triazol-1-yl)oxy)-6-(2,4-dichlorophenyl)-2-(phenylamino)-5,6-dihydropyrido[2,3-d]pyrimidine-7(8H)-one]
EC50 [1]: 1 to 5 µM | CC50 at 2 days (cytotoxicity assay (MTT)): < 10 µM

CCCCCNc1nc(N)nc2c1cc(-c1ccc(F)cc1)c(=O)n2C [Example 42, 2-amino-6-(4-fluorophenyl)-8-methyl-4-(pentylamino) pyrido[2,3-d]pyrimidine-7(8H)-one]
EC50 [1]: 5 to 22 µM | CC50 at 2 days (cytotoxicity assay (MTT)): 10 to 25 µM

COc1ccc(Nc2nc3[nH]c(=O)c(-c4ccc(F)cc4)cc3c(=O)[nH]2)cc1 [Example 31, 6-(4-fluorophenyl)-2-((4-methoxyphenyl)amino)pyrido[2,3-d]pyrimidine-4,7(3H,8H)-dione]
EC50 [1]: 5 to 22 µM | CC50 at 2 days (cytotoxicity assay (MTT)): ≥ 25 µM

Cn1c(=O)c(-c2ccc(F)cc2)cc2c(N3CCCC3)nc(N)nc21 [Example 43]
EC50 [1]: 5 to 22 µM | CC50 at 48 h (cytotoxicity assay (MTT)): ≥ 25 µM

O=C1Nc2nc(Nc3ccccc3)[nH]c(=O)c2CC1c1cccc2ccccc12 (stereo not shown) [Example 20, 6-(naphthalen-1-yl)-2-(phenylamino)-5,6-dihydropyrido[2,3-d]pyrimidine-4,7(3H,8H)-dione]
EC50 [1]: 5 to 22 µM | CC50 at 2 days (cytotoxicity assay (MTT)): 10 to 25 µM

Cn1c(=O)c(-c2c(F)cccc2C(F)(F)F)cc2c(N)nc(Nc3ccccc3)nc21 [Example 51, 4-amino-6-(2-fluoro-6-(trifluoromethyl)phenyl)-8-methyl-2-(phenylamino) pyrido[2,3-d]pyrimidine-7(8H)-one]
EC50 [1]: 1 to 5 µM | CC50 at 2 days (cytotoxicity assay (MTT)): < 10 µM

CCCOCCNc1nc(Oc2ccccc2)nc2[nH]c(=O)c(-c3ccc(F)cc3)cc12 [Example 32, 6-(4-fluorophenyl)-2-phenoxy-4-((2-propoxyethyl)amino) pyrido[2,3-d]pyrimidine-7(8H)-one]
EC50 [1]: 1 to 5 µM | CC50 at 2 days (cytotoxicity assay (MTT)): ≥ 25 µM

CCCOCCOc1nc(N)nc2c1cc(-c1c(Cl)cccc1Cl)c(=O)n2C [Example 44, 2-amino-6-(2,6-dichlorophenyl)-8-methyl-4-(2-propoxyethoxy)pyrido[2,3-d]pyrimidine-7(8H)-one]
EC50 [1]: 5 to 22 µM | CC50 at 2 days (cytotoxicity assay (MTT)): ≥ 25 µM

CCCOCCNc1nc(Nc2ccccc2)nc2c1cc(-c1c(Cl)cccc1Cl)c(=O)n2C [Example 46, 6-(2,6-dichlorophenyl)-8-methyl-2-(phenylamino)-4-((2-propoxyethyl)amino)pyrido[2,3-d]pyrimidine-7(8H)-one]
EC50 [1]: 5 to 22 µM | CC50 at 2 days (cytotoxicity assay (MTT)): ≥ 25 µM

Nc1nc(Nc2ccccc2)nc2c1cc(-c1c(Cl)cccc1Cl)c(=O)n2CCO [Example 59, 4-amino-6-(2,6-dichlorophenyl)-8-(2-hydroxyethyl)-2-(phenylamino) pyrido[2,3-d]pyrimidine-7(8H)-one]
EC50 [1]: 1 to 5 µM | CC50 at 2 days (cytotoxicity assay (MTT)): ≥ 25 µM

COCCn1c(=O)c(-c2c(Cl)cccc2Cl)cc2c(N)nc(Nc3ccccc3)nc21 [Example 58, 4-amino-6-(2,6-dichlorophenyl)-8-(2-methoxyethyl)-2-(phenylamino) pyrido[2,3-d]pyrimidine-7(8H)-one]
EC50 [1]: < 1 µM | CC50 at 2 days (cytotoxicity assay (MTT)): ≥ 25 µM
